“Also recorded” adds a separate entry of the source.

Data set [1] in a line: observation of status and clinical manifestations of mice during multiple rounds of administration. The conditions noted are these: for mice depilated, dispirited and in poor state: after 3 consecutive rounds. The format is in vivo, C57 mice. The procedure:
B. The schematic diagram of the multiple dosing and the subsequent blood routine examinations in mice. The drug was administered on 3 consecutive days per week, followed by a 4-day interval, for 3 weeks continuous administration. The drug was administered by intraperitoneal injection in the afternoon on days 0, 1, 2, 7, 8, 9, 14, 15, and 16, and the blood was collected and tested in the morning on days 1, 3, 5, 8, 10, 12, 15, 17, and 19, respectively.
A single administration of A13 or A13bG was performed. Female 5-6 week old C57 mice were treated with a single intraperitoneal injection. A13 and A13bG were administered in three different dose groups of 2, 5, and 20 mg/kg. Approximately 50 μl of blood was collected from each mouse at different time points into the EDTA tubes (RAM Scientific) by means of inner canthal blood extraction, and analyzed using a haematology analyzer for a blood routine examination and a platelet counting. Multiple administrations of A13 or A13bG were performed. Female 5-6 week old C57 mice were treated with multiple intraperitoneal injections. A13 and A13bG were administered in three different dose groups of 2, 5 and 20 mg/kg, three consecutive days per week, followed by a 4-day withdrawal for 3 weeks. The time points of administration were in the afternoon of days 0, 1, 2, 7, 8, 9, 14, 15, and 16, and the time points of blood collection and testing were in the morning of days 1, 3, 5, 8, 10, 12, 15, 17, and 19, respectively.

The subject of data set [2] is mouse model of oxygen-induced retinopathy. As to the kind of experiment: oxygen-induced retinopathy, retinal microvessel staining analysis. The format is in vivo, C57BL6/J mice. Particulars: single intravitreal injection. On the procedure:
A. Modelling of a mouse model of oxygen-induced retinopathy, and the schematic diagram of treatment. C57BL6/J mice were cultured in 75% hyperoxia for 5 consecutive days starting from postnatal day 7, and treated by a single intravitreal administration of the drug on postnatal day 12, and then transferred to normal air atmosphere until day 17 for retinal sampling and analysis. P0, P7, P12, and P17 in the panel represent mice on postnatal days 0, 7, 12, and 17, respectively.
B. Representative diagram of the reduction of pathological avascular areas in the mouse retina after the treatment by intravitreal injection of A13bGa1. Mouse retinal microvessels were labelled by IB4 staining for the central avascular area analysis, wherein the green fluorescence represents the IB4-labelled microvascular areas, and the avascular areas are circled with white markers in the panel.
C. Statistical results of the retina pathological avascular areas after treatment of different groups of mice. […] The statistics in the panel are the quantitative results of the ischemic areas in the retinas of each sample compared with that of the VEH control group after the areas were taken as the means, and the error bar is a standard deviation. […]

Data set [3] in a line: liver microsomal metabolic stability, all species. The format is in vitro ADME, rat and mouse. Particulars: human, monkey, canine, rat, mouse; Table 4. The procedure: Hepatic Microsomal Metabolic Stability
The entire experiment was performed in triplicate. All data calculations were performed by Microsoft Excel software. Peak areas were detected by extracting the ionic spectrum.
The in vitro half-life (t1/2) was calculated by slope: in vitro t½=0.693/k
For orientation: Liver microsomes are a subcellular fraction often used to study metabolism.

A short description of data set [4]: plasma metabolic stability, canine. The conditions noted are these: dog, 120 min. The format is in vitro ADME. On the procedure:
(§1) Plasma Metabolic Stability
(§2) Termination of the reaction was accomplished by the addition of 3× volume of acetonitrile and centrifugation at 16000 g for 20 minutes. The supernatant was taken for a LC-MS/MS analysis. The chromatographic column: Waters XSelect HSS T3; the flow rate: 500 μL/min; the eluent: A, water (0.1% formic acid); B, acetonitrile (0.1% formic acid); the gradient elution: 0-1.5 min, 5% B, 1.5-9 min, 5%-80% B, 9-12 min, 80%-100% B, 12-14 min, 100% B, 14-14.3 min, 100%-5% B, 14.3-15 min, 5% B.

Data set [5] can be described thus: plasma metabolic stability, rat. The class given is in vitro ADME. Particulars: 120 min. The procedure: as §1, §2
Data set [6] concerns MRC5 cells (human embryonic lung fibroblast cell line). The data set can be described thus: in vitro killing of induced senescent MRC5 cells (CCK-8). Particulars: lung-derived, FIG. 3G. The class given is cell-based. The text has this: (§3) Induction of the Cellular Senescence
Data set [7] in a line: plasma metabolic stability, human. The format is in vitro ADME. Particulars: 120 min. The procedure: as §1, §2
Data set [8] has as its system BJ cells (human skin fibroblast cell line). The data set can be described thus: in vitro killing of induced senescent BJ cells (CCK-8). The format is cell-based. Particulars: human skin-derived fibroblasts, FIG. 3D.
From the text: as §3

The mark [9] stands for this setting: 10 μM prodrug, read-out: The peak area after normalisation at minute 120, oxidative dehydrogenation metabolite.
[10] abbreviates: 10 μM, read-out: The peak area after normalisation at minute 120, initial drug.

Take `Cc1c(-c2ccc(N3CCc4cccc(C(=O)Nc5nc6ccccc6s5)c4C3)nc2C(=O)O)cnn1CC12CC3CC(CC(C3)C1)C2` [Compound A13, 3-[1-(adamantan-1-ylmethyl)-5-methylpyrazol-4-yl]-6-{8-[(1,3-benzothiazol-2-yl)carbamoyl]-3,4-dihydro-1H-isoquinolin-2-yl}pyridine-2-carboxylic acid]: the “status and clinical manifestations (abnormalities)” value in data set [1] (5 mg/kg and 20 mg/kg, 3 consecutive weeks, FIG. 4D) is “depilated, dispirited and in poor state; also recorded: hair loss and depression”. Also, the “mice depilated, dispirited and in poor state” value in data set [1] (5 mg/kg dose group) and in data set [1] (20 mg/kg dose group) was 2 out of 4 throughout.

As for `Cc1c(-c2ccc(N3CCc4cccc(C(=O)Nc5nc6ccccc6s5)c4C3)nc2C(=O)OCc2ccc(O[C@@H]3O[C@H](CO)[C@H](O)[C@H](O)[C@H]3O)c([N+](=O)[O-])c2)cnn1CC12CC3CC(CC(C3)C1)C2` [Compound A13bGa1], in data set [2], the retinal oxygen-induced microangiopathy result is “effectively improve the retinal oxygen-induced microangiopathy”. The “area of the abnormal neovascular area in the retinas” value in data set [2] (50 ng and 100 ng, FIGS. 6D and 6E) was “significantly reduced”. Also, the “liver microsomal metabolic stability” value in data set [3] is “good moderate metabolic stability”. For the same molecule, the metabolised at 2 h, 10 µM in data set [4] (setting [9]) was found to be 0.48%; in data set [5] (setting [9]), 0.13%; in data set [7] (setting [9]), 0.07%. In addition, the results for the remaining at 2 h, 10 µM in data set [4] (setting [10]), in data set [5] (setting [10]) and in data set [7] (setting [10]) were 99.5%, 99.9% and 99.9%, respectively. Also, the “killing of the senescent cells, efficiency and selectivity” value in data set [6] is “highly efficient and selective in killing the senescent cells”; in data set [8] it was “highly efficient and selective in killing the senescent cells”.

Values taken from US20260345582A1, “PRODRUG FOR ANTI-AGING RELATED DISEASES AND USE METHOD THEREOF” (Beijing SunCell Bio-Medical Co., Ltd., priority 2022, published 2026).
